Tests used:
Format in all cases: cell-based
B-16 mouse melanoma cell = test: Total melanin amount in mouse melanoma cell culture (brightening effect); conditions: B16, 72 h, B-16 melanoma cells cultured three days, vs negative control (DMSO), read-out: Inhibition rate (%) of melanin production
Procedure: In order to evaluate a brightening effect according to inhibition of melanogenesis, an extract was added to a mouse melanoma cell (B-16 mouse melanoma cell) culture, and the total amount of melanin was measured according to a method described in Lotan R. et al. (Cancer Res. 40:3345-3350, 1980). For this experiment, toxicity with respect to the mouse melanoma cells was first evaluated, and the brightening effect was evaluated at a concentration not inducing toxicity. Dimethyl sulfoxide (DMSO) was used as a negative control, and arbutin was used as a positive control.
Specifically, A compound of Formula 1 was added to a medium of each sample so that the final concentration of the compound of Formula 1 is 1 ppm, 10 ppm, 100 ppm, or 500 ppm, and Daidzein was also added to the medium so that the final concentration of Daidzein is 1 ppm, 10 ppm, 100 ppm, or 500 ppm. Arbutin was added to the medium so that the final concentration was 100 ppm. In each of the mediums, melanoma cells were cultured for three days. Subsequently, the cells were treated with trypsin, detached from the culture plate, and centrifuged, and then melanin was extracted. The detached cells were boiled for 10 minutes by adding 1 ml of a sodium hydroxide solution (1 N concentration) so that melanin was dissolved, and by measuring an absorbance at 400 nm using a spectrophotometer, the amount of melanin production was measured.
The amount of melanin was measured by a method of indicating absorbance per unit cell count (1×10^6 cells), The amount of melanin production in each experimental group with respect to the negative control was calculated as a relative value, and the value obtained by subtracting the amount of melanin production in each experimental group from 100% of the melanin production amount in the negative control group was expressed as the inhibition rate (%). The experiment was performed three times for each sample, and averages of measurements were obtained.

[1] = tested on: type I collagen synthesis in human-derived fibroblasts; test: Type I collagen synthesis in human-derived fibroblasts (PICP EIA kit); conditions: for Increase rate (%) of collagen synthesis: relative to negative control; for Amount of type I collagen production: negative control 151.4
Procedure: A sample was added to a human-derived fibroblast culture medium to evaluate the effect of promoting type I collagen synthesis at the cellular level. The synthesized collagen was quantified using a Procollagen Type I C-Peptide Enzyme Immunoassay kit (PICP EIA kit). In order to measure the amount of collagen synthesis, a compound of Formula 1 was added to the fibroblast culture medium (Dulbecco's Modified Eagle Medium (DMEM)) so that the final concentration of compound of Formula 1 was 0.1 ppm, 1 ppm, or 10 ppm in each medium, and Genistein was also added to the fibroblast culture medium (Dulbecco's Modified Eagle Medium (DMEM)) so that final concentration of Genistein was 0.1 ppm, 1 ppm, or 10 ppm. After culturing for 48 hours, and then the culture medium was taken, and, by using the PICP EIA kit, the degree of type I collagen synthesis at each concentration was measured at 450 nm using a spectrophotometer. In order to compare the effect, the culture medium of fibroblasts without sample treatment was used as a negative control, and 10 ng/ml TGF-β was used as a positive control, and the degrees of collagen synthesis therein were measured in the same manner as for testing an added sample. A rate of increase in collagen synthesis was calculated as a ratio of the amount of collagen production relative to that of the negative control, and the results are shown in Table 2. The experiment was performed three times for each sample, and averages of measurements were obtained.

HAS2 = HAS2 mRNA expression in human keratinocytes (real-time quantitative PCR); conditions: HaCaT, negative control normalized to 1.0
Procedure: (§1) Human keratinocytes (HaCaT) were dispensed into a 6-well cell culture plate at 2×10^5 cells/well and cultured for 24 hours in a DMEM medium containing 10% fetal bovine serum (FBS). The medium was replaced with a DMEM medium without 10% FBS and calcium (Ca^2+), and the cultured cells were treated with the compound of Chemical Formula 1, which had been diluted with a medium, for 24 hours. After the 24 hours had passed, the cells were recovered and then washed with a cold phosphate buffer solution (PBS), and total RNA was extracted using an RNeasy mini kit (Qiagen, Germany). A reverse transcription reaction was performed using RNA and a cDNA Synthesis kit (PhileKorea, Korea). The synthesized cDNA was diluted with water after being quantified, and the same amount thereof was used for all reactions. HAS2, HAS3, and AQP3 primers from a TaqMan® Universal Master Mix II and TaqMan® Gene Expression Assays (Thermo Fisher, USA) were used. Real-time quantitative polymerase chain reaction (PCR) was carried out using a StepOnePlus® Real-time PCR System (Applied Biosystems, USA). The experimental results were obtained through calculation performed by a ΔΔCt method based on a housekeeping gene glyceraldehyde-3-phosphate dehydrogenase (GAPDH). The levels of HAS2, HAS3, and AQP3 gene expression in each sample were quantified based on the mRNA expression level (normalized to 1.0) of the negative control to which the sample was not added, and the results are shown in Table 3. As a positive control, 10 ng/ml EGF recombinant human protein (Life Technologies, USA) was used.

HAS3 = HAS3 mRNA expression in human keratinocytes (real-time quantitative PCR); conditions: HaCaT, negative control normalized to 1.0
Procedure: as §1

AQP3 = AQP3 mRNA expression in human keratinocytes (real-time quantitative PCR); conditions: HaCaT, negative control normalized to 1.0
Procedure: as §1

A. niger = test: Minimum inhibitory concentration, serial dilution method; conditions: PDB medium, about 10^6/well
Procedure: (§2) This experiment was carried out by a serial dilution method and a method of measuring a minimum inhibitory concentration (MIC), using an MHB2 medium (for bacteria) or a PDB medium (for fungi). The bacteria or fungi were inoculated at about 10^6/well.

C. albicans = test: as above; conditions: PDB medium, about 10^6/well
Procedure: as §2

E. coli = test: as above; conditions: MHB2 medium, about 10^6/well
Procedure: as §2

P. aeruginosa = test: as above; conditions: MHB2 medium, about 10^6/well
Procedure: as §2

Pityrosporum ovale = test: as above; conditions: about 10^6/well
Procedure: as §2

S. aureus = test: as above; conditions: MHB2 medium, about 10^6/well
Procedure: as §2

[2] = tested on: Wnt/β-catenin signaling pathway; test: Wnt/β-catenin signaling pathway activation, TOPflash luciferase reporter in human dermal papilla cells; conditions: untreated control = 100
Procedure: The effect of the compound of Chemical Formula 1 on the activation of the Wnt/β-catenin signaling pathway was investigated using TOPflash (T-cell factor reporter plasmid) Kit (Millipore, USA). Human dermal papilla cells were inoculated into a 24-well plate at 2×10^5/well, cultured for 24 hours, treated with the compound of Chemical Formula 1 so that the concentration was 10 μg/ml, and then additionally cultured for 15 hours, and firefly luciferase activity was subsequently measured using a dual luciferase assay kit (Promega, USA).
In order to accurately measure the luciferase activity, the experiment was performed three times for each sample, an increase rate (%) was calculated as a ratio of activity relative to that of a control was calculated, and the results are shown in Table 5. The negative control was an untreated group. As a positive control, 6-bromoindirubin-3′-oxime (BIO) was used, and BIO is a material known to inhibit GSK-3 in the Wnt signaling system.

dermal papilla cells = test: Dermal papilla cell proliferation (CCK-8); conditions: 100 ppm, CCK-8 on day 5, Control (DMEM) = 1.00
Procedure: This experiment was performed using the following media 1) to 3):
1) DMEM (10% FBS, 1% P/S)
2) Depletion medium: 5% charcoal-stripped, FBS-containing, phenol red-free DMEM
3) Serum-free (SF) medium: DMEM (1% P/S).
On days 0 to 5, the following various experiments were performed to confirm a dermal papilla cell proliferation effect.
Day 0: At 10 a.m., cells were seeded (5,000 cells/well)
Day 1: At 10 a.m., after changing the depletion medium, cells were cultured for 24 hours.
Day 2: At 10 a.m., CCK-8 was measured (average initial value: 0.586) before the cells were treated with a sample, and subsequently, cells were treated with a sample.

OC[C@H]1O[C@@H](Oc2ccc(O)cc2)[C@H](O)[C@@H](O)[C@@H]1O [Arbutin, arbutin]
inhibition at 100 ppm (B-16 mouse melanoma cell): 56%

O=c1c(-c2ccc(O)cc2)coc2cc(O)cc(O)c12 [Genistein]
Increase rate (%) of collagen synthesis ([1]; 0.1 ppm, 48 hours): 2.53%
Amount of type I collagen production ([1]; 0.1 ppm, 48 hours): 155.24 ng/mL
Increase rate (%) of collagen synthesis ([1]; 1 ppm, 48 hours): 4.85%
Amount of type I collagen production ([1]; 1 ppm, 48 hours): 158.75 ng/mL
Increase rate (%) of collagen synthesis ([1]; 10 ppm, 48 hours): 8.59%
Amount of type I collagen production ([1]; 10 ppm, 48 hours): 165.93 ng/mL
Increased HAS2 mRNA amount (HAS2; 10 ppm, 24 hours): 1.06
Increased HAS2 mRNA amount (HAS2; 100 ppm, 24 hours): 2.74
Increased HAS3 mRNA amount (HAS3; 10 ppm, 24 hours): 2.86
Increased HAS3 mRNA amount (HAS3; 100 ppm, 24 hours): 3.34
Increased AQP3 mRNA amount (AQP3; 10 ppm, 24 hours): 1.09
Increased AQP3 mRNA amount (AQP3; 100 ppm, 24 hours): 2.47
Minimum inhibitory concentration (%) A. niger (A. niger): 0.2%
Minimum inhibitory concentration (%) C. albicans (C. albicans): 0.08%
Minimum inhibitory concentration (%) E. coli (E. coli): 0.1%
Minimum inhibitory concentration (%) P. aeruginosa (P. aeruginosa): 0.07%
Minimum inhibitory concentration (%) Pityrosporum ovale (Pityrosporum ovale): 0.0005%
Minimum inhibitory concentration (%) S. aureus (S. aureus): 0.03%
Increase rate (%) of luciferase activity ([2]; 10 μg/ml, 15 hours): 140%
Average (ratio) dermal papilla cell proliferation (dermal papilla cells): 1.10

zinc pyrithione
Minimum inhibitory concentration (%) A. niger (A. niger): 0.02%
Minimum inhibitory concentration (%) C. albicans (C. albicans): 0.02%
Minimum inhibitory concentration (%) E. coli (E. coli): 0.002%
Minimum inhibitory concentration (%) P. aeruginosa (P. aeruginosa): 0.002%
Minimum inhibitory concentration (%) Pityrosporum ovale (Pityrosporum ovale): 0.0002%
Minimum inhibitory concentration (%) S. aureus (S. aureus): 0.001%

TGF-β
Increase rate (%) of collagen synthesis ([1]; 10 ng/ml, positive control): 13.84%
Amount of type I collagen production ([1]; 10 ng/ml, positive control): 172.35 ng/mL

O=c1c(-c2ccc(O)cc2)coc2cc(O)ccc12 [Daidzein]
inhibition at 1 ppm (B-16 mouse melanoma cell): 18.7%
inhibition at 10 ppm (B-16 mouse melanoma cell): 16.4%
inhibition at 100 ppm (B-16 mouse melanoma cell): 20.8%
inhibition at 500 ppm (B-16 mouse melanoma cell): 30.2%

O=C1Nc2cc(Br)ccc2/C1=C1/Nc2ccccc2/C1=N\O [BIO, 6-bromoindirubin-3′-oxime]
Increase rate (%) of luciferase activity ([2]; 1 μM, positive control): 153%

EGF: EGF recombinant human protein (Life Technologies, USA), positive control
Increased HAS2 mRNA amount (HAS2; 10 ng/ml, positive control): 16.42
Increased HAS3 mRNA amount (HAS3; 10 ng/ml, positive control): 5.24
Increased AQP3 mRNA amount (AQP3; 10 ng/ml, positive control): 1.09

COc1ccc(-c2coc3cc(O[C@@H]4O[C@H](CO[C@@H]5OC[C@@H](O)[C@H](O)[C@H]5O)[C@@H](O)[C@H](O)[C@H]4O)c(OC)c(O)c3c2=O)cc1 [Chemical Formula 1, kakkalide]
inhibition at 1 ppm (B-16 mouse melanoma cell): 35.3%
inhibition at 10 ppm (B-16 mouse melanoma cell): 48%
inhibition at 100 ppm (B-16 mouse melanoma cell): 57.6%
inhibition at 500 ppm (B-16 mouse melanoma cell): 68.4%
Increase rate (%) of collagen synthesis ([1]; 0.1 ppm, 48 hours): 4.19%
Amount of type I collagen production ([1]; 0.1 ppm, 48 hours): 157.74 ng/mL
Increase rate (%) of collagen synthesis ([1]; 1 ppm, 48 hours): 12.56%
Amount of type I collagen production ([1]; 1 ppm, 48 hours): 170.41 ng/mL
Increase rate (%) of collagen synthesis ([1]; 10 ppm, 48 hours): 16.07%
Amount of type I collagen production ([1]; 10 ppm, 48 hours): 175.72 ng/mL
Increased HAS2 mRNA amount (HAS2; 10 ppm, 24 hours): 2.28
Increased HAS2 mRNA amount (HAS2; 100 ppm, 24 hours): 6.64
Increased HAS3 mRNA amount (HAS3; 10 ppm, 24 hours): 3.97
Increased HAS3 mRNA amount (HAS3; 100 ppm, 24 hours): 5.23
Increased AQP3 mRNA amount (AQP3; 10 ppm, 24 hours): 1.75
Increased AQP3 mRNA amount (AQP3; 100 ppm, 24 hours): 4.17
Minimum inhibitory concentration (%) A. niger (A. niger): 0.1%
Minimum inhibitory concentration (%) C. albicans (C. albicans): 0.05%
Minimum inhibitory concentration (%) E. coli (E. coli): 0.05%
Minimum inhibitory concentration (%) P. aeruginosa (P. aeruginosa): 0.05%
Minimum inhibitory concentration (%) Pityrosporum ovale (Pityrosporum ovale): 0.0003%
Minimum inhibitory concentration (%) S. aureus (S. aureus): 0.01%
Increase rate (%) of luciferase activity ([2]; 10 μg/ml, 15 hours): 160%
Average (ratio) dermal papilla cell proliferation (dermal papilla cells): 1.34
